# Like-named read-outs stand apart in the source and are kept apart here.
# What was measured:
# normal human T cells = type: cell-based
# HLA-DR molecules = conditions: cited from earlier work
# [1] = system: Env 134-specific T cell line; test: Env 134-specific T cell line (stimulated five times with the immunizing peptide): recognition and titration of variant peptides; type: cell-based, mouse; conditions: Env 134 line; for Peptide concentration at which any IFN-γ secretion was detected: highest peptide concentration examined; for Enrichment of CTL able to recognize the peptide: one versus five stimulations; for Affinity reduced from the parent peptide: peptide titration
# Gag 271 variants = test: Gag 271 variant immunogenicity tested using HLA-A2 transgenic mice; type: in vivo; conditions: 167 HIV variants
# Excerpt: This particular group of 21 epitopes was selected based on their identity conservation in Clade B HIV sequences, with conservation across HIV clades as a secondary consideration. Because of this criteria, the form of epitope chosen as the parent peptide was not the most common variant (e.g. Gag 386, Gag 271, Pol 98). In some cases (e.g., see Gag 386 data), the “parent” epitope and the most common variant were recognized to the same extent. However, in some cases the selection of epitope to include as the “parent” epitope was predicted to make a difference in the immunological conservation. An example of this was the Gag 271 epitope (FIG. 4). The variant most commonly seen in clade B sequences was the […] form, while the most common form of the epitope was […]. Not all amino acids are considered equal to each other in their ability to substitute (Tangri). For example, asparagine (N) is considered a conservative substitution for serine (S), while the opposite substitution in only considered semi-conserved. When the program calculated immunological conservation using the […] peptide as the parent peptide, only two variants were predicted to be immunogenic. […] This prediction was tested using HLA-A2 transgenic mice. […] This has important implications in epitope selection for vaccine development, and epitope performance can be predicted.
# [2] = system: Gag 386-specific T cell line; test: Gag 386-specific T cell line (stimulated five times with the immunizing peptide): recognition and titration of variant peptides; type: cell-based, mouse; conditions: Gag 386 line; for Peptide affinity (titration against CTL stimulated 5 times with the parent peptide): IFN-γ
# Excerpt: Recognition after multiple restimulations The observed recognition of variant peptides by CTL raised against the parent peptide might be due to either promiscuous recognition at the level of a single TCR or simply a mixture of TCRs against the immunizing peptide which are each able to recognize subtly different peptides. To distinguish between these two possibilities, Env 134- or Gag 386-specific T cell lines were generated by stimulating five times with the immunizing peptide, and then tested for recognition of a partial panel of variant peptides. These T cell lines were also characterized for Vβ TCR usage against a panel of antibodies predicted to react with the TCR of the mouse strains utilized for these experiments.
# Because the SU is a measure of the number of cells needed to secrete a defined amount of IFN-γ, a higher SU value would correspond to an enrichment of IFN-γ, producing cells.
# Both lines were also characterized with regard to the affinity of certain of the variant peptides by titrating the variant peptides examined above (Table 5A and 5B).
# [3] = system: patients with recurrent or residual cervical carcinoma; conditions: co-emulsified with HPV-derived CTL epitopes, cited from earlier work
# [4] = system: CTL primed against the parent peptide; test: Recognition of variant peptides by CTL from DNA-immunized HLA-A11/K^b transgenic mice (IFN-γ secretion after restimulation of splenocytes); type: cell-based; conditions: parent Pol 98
# Excerpt: Variants corresponding to five HLA-A2 and -A3 restricted epitopes from 167 HIV varianst were identified and synthesized. These represented all the complete sequences in the Los Alamos database at the time (116 strains), as well as 51 complete clade C sequences from Botswana, and included 22 subtype B and 62 subtype C sequences. These peptides were then characterized with regard to MHC binding, variant distribution, and immunogenicity. To measure immunogenicity, HLA-A2/K^b or HLA-A11/K^b transgenic mice were immunized with the epitopes encoded in a DNA based format ( ). Eleven days after immunization, splenocytes were restimulated with either the epitope corresponding to the epitope encoded by the DNA (parent) or each of the variant peptides. After 6 days in culture, IFN-γ secretion was measured in response to the peptide used to stimulate each culture.
substance,measurement,setting,value
QYIKANSKFIGITE [TT 830-843],"Antigen concentration at which the 10,000 cpm proliferation level was reached",normal human T cells,"about 10,000 ng/ml"
same,Donors with primary T cell responses,normal human T cells,2
same,DR molecules bound,HLA-DR molecules,seven
KLTPLCVPL [Env 134 variant],Activity as measured by SU after five restimulations,[1],lowest activity
same,Peptide concentration at which any IFN-γ secretion was detected,[1],1 µg/mL
same,Enrichment of CTL able to recognize the peptide,[1],little or no enrichment
MTSNPPIPV,Variants that would be recognized if this form of the peptide was utilized in vaccines,Gag 271 variants,approximately 152 of 167 variants
KLTPFCVTL [Env 134 variant],Activity as measured by SU after five restimulations,[1],lowest activity
same,Peptide concentration at which any IFN-γ secretion was detected,[1],1 µg/mL
same,Enrichment of CTL able to recognize the peptide,[1],little or no enrichment
MTNNPPIPV,Variants that would be recognized if this form of the peptide was utilized in vaccines,Gag 271 variants,39 of 167 variants
ILAEAMSKA [Gag 386 variant],"Recognition of variant peptides (SU, IFN-γ), one versus five peptide stimulations",[2],never recognized
same,Peptide affinity (titration against CTL stimulated 5 times with the parent peptide),[2],not recognized
VLAEAMSQV [Gag 386],Peptide affinity (titration against CTL stimulated 5 times with the parent peptide),[2],highest affinity
aKXVAAWTLKAAa-NH2 [PADRE®],"Potency relative to TT 830-843 antigen for activation of T cell responses, on a molar basis",normal human T cells,about 100 fold
same,Donors with primary T cell responses,normal human T cells; three normal donors tested,three
same,Safety,[3],favorable safety profile
same,Patients in whom PADRE T cell reactivity was detected,[3]; immunocompromised patients,four
KITPLCVTL [Env 134 variant],Affinity reduced from the parent peptide,[1],approximately 10 fold
VLAEAMSQI [Gag 386 single anchor variant],Peptide affinity (titration against CTL stimulated 5 times with the parent peptide),[2],highest affinity
QLTPLCVTL [Env 134 variant],Affinity reduced from the parent peptide,[1],~100 fold
KLTPLCVIL [Env 134 variant],Activity as measured by SU after five restimulations,[1],lowest activity
same,Peptide concentration at which any IFN-γ secretion was detected,[1],1 µg/mL
same,Enrichment of CTL able to recognize the peptide,[1],little or no enrichment
ELTPLCVTL [Env 134 variant],Activity as measured by SU after five restimulations,[1],lowest activity
same,Peptide concentration at which any IFN-γ secretion was detected,[1],1 µg/mL
same,Enrichment of CTL able to recognize the peptide,[1],little or no enrichment
QITPLCVTL [Env 134 variant],Activity as measured by SU after five restimulations,[1],lowest activity
same,Peptide concentration at which any IFN-γ secretion was detected,[1],1 µg/mL
same,Enrichment of CTL able to recognize the peptide,[1],little or no enrichment
VSIKVGGQIK,Recognition relative to the parent peptide,[4],≤ 10 fold

# Reference: US20070054262A1, “Methods of identifying optimal variants of peptide epitopes” (priority 2003, published 2007)
